target: T1, SARS-CoV-2 PLpro (Severe acute respiratory syndrome coronavirus 2, UniProt P0DTD1); test: fluorogenic Z-RLRGG-AMC cleavage assay; assay type: biochemical; conditions: read-out: % inhibition at 10 μM

Compound | inhibition at 10 µM [%]
Cc1ccc(S(=O)(=O)n2cc(CN(C3=CC(=O)c4ccccc4C3=O)c3ccc(Br)cc3)nn2)cc1 [compound 314, 314] | 55 ± 7
Cc1ccc(S(=O)(=O)n2cc(CNC3=CC(=O)c4ccccc4C3=O)nn2)cc1 [compound 319, 319] | 69 ± 3
CC(=O)NC1=CC(=O)c2c(cccc2[N+](=O)[O-])C1=O [compound 415, 415] | 63 ± 9

target: T1, SARS-CoV-2 PLpro; test: biochemical; conditions: read-out: PLpro % inhibition at 10 µM

Compound | inhibition at 10 µM [%]
CC1(C)OC2=C(C(=O)C(=O)c3ccccc32)C1n1cc(-c2ccccc2)nn1 (stereo not shown) [compound 159] | 100 ± 1
CC1(C)OC2=C(C(=O)C(=O)c3ccccc32)C1n1cc(CNC2=CC(=O)c3ccccc3C2=O)nn1 (stereo not shown) [compound 189] | 100
CC1(C)OC2=C(C(=O)C(=O)c3ccccc32)C1n1cc(CNC2=C(Br)C(=O)c3ccccc3C2=O)nn1 (stereo not shown) [compound 191] | 93 ± 0.7
CC(=O)c1ccc(N(Cc2cn(S(=O)(=O)c3ccc(C)cc3)nn2)C2=CC(=O)c3ccccc3C2=O)cc1 [compound 318] | 9 ± 5
Cc1ccc(S(=O)(=O)n2cc(CNC3=C(Cl)C(=O)c4ccccc4C3=O)nn2)cc1 [compound 320, 320] | 31 ± 6
Cc1ccc(S(=O)(=O)n2cc(CNC3=C(Br)C(=O)c4ccccc4C3=O)nn2)cc1 [compound 321, 321] | 17 ± 0.2
O=C1C(Sc2ccccc2)=C(Sc2ccccc2)C(=O)c2ccccc21 [compound 379] | 0
O=C1C(Sc2ccc(Br)cc2)=C(Sc2ccc(Br)cc2)C(=O)c2ccccc21 [compound 380, 380] | 12 ± 6
COc1ccc(SC2=C(Sc3ccc(OC)cc3)C(=O)c3ccccc3C2=O)cc1 [compound 382] | 0
CC(=O)NC1=CC(=O)c2cccc(O)c2C1=O [compound 414, 414] | 38 ± 2
Cc1ccc(S(=O)(=O)c2cccc3c2C(=O)c2ccccc2C3=O)cc1 [compound 477, 477] | 0
CC1(C)OC2=C(CC1Br)C(=O)C(=NNc1ccccc1)c1ccccc12 (stereo not shown) [compound 666, 666] | 0
CC1(C)CC2=C(O1)c1ccccc1C(=NNc1ccccc1)C2=O [compound 673, 673] | 4 ± 4

— doi:10.1101/2022.01.05.475095v1 (biorxiv, 2022)
